The values that follow come from ChEMBL document CHEMBL1201862, “PubChem BioAssay data set” (2004).

Test systems include NCI-H460; UO-31; EKVX; HCT-116; SK-OV-3; U-251; IGROV-1; SNB-75; HCC 2998; K562; HCT-15; TK-10; UACC-257; NCI-H23; NCI-H522; SR.
Assay in all cases: NCI tumour cell line growth inhibition, 48 h

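Dose response: 5 concentrations. Exposure: 48 h. Format: 96-well plates. Endpoint: linear interpolation; highest concentration if not reached. GI50: concentration for 50% inhibition of growth.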 The source made the active and inactive calls. No stated cut-off is given here; in the data, active = GI50 up to about 1.1 µM and inactive = higher. Some results are limits rather than exact numbers.

`C#CCN(Cc1ccc2nc(-c3ccccc3)c(Cl)nc2c1)c1cc(OC)c(OC)c(OC)c1`: the GI50 is 46.1 µM (inactive) in the experiment with NCI-H460; > 100 µM (inactive) in the experiment with UO-31; > 100 µM (inactive) in the experiment with EKVX; 40.5 µM (inactive) with HCT-116; > 100 µM (inactive) in the experiment on SK-OV-3; 27 µM (inactive) in the experiment on U-251. Besides, the GI50 in the experiment with IGROV-1 was > 100 µM (inactive); in the experiment with SNB-75, > 100 µM (inactive); in the experiment on HCC 2998 it was > 100 µM (inactive); in the experiment with K562, 20.1 µM (inactive); in the experiment with HCT-15 it was above 100 µM; in the experiment with TK-10, > 100 µM (inactive). Besides, the GI50 with UACC-257 is 39.2 µM (inactive); in the experiment with NCI-H23, > 100 µM (inactive); in the experiment on NCI-H522, > 100 µM (inactive).
In the case of `COC(=O)C(C)Oc1ccc(O)cc1` (stereo unspecified), the GI50 in the experiment on NCI-H460 is > 100 µM (inactive); in the experiment with UO-31 it was > 100 µM (inactive); in the experiment on EKVX, > 100 µM (inactive); in the experiment on HCT-116 it was 20.9 µM (inactive); in the experiment on SK-OV-3 it was > 100 µM (inactive); with U-251, > 100 µM (inactive). Besides, the GI50 in the experiment on IGROV-1 is > 100 µM (inactive); in the experiment with SNB-75 it was > 100 µM (inactive); in the experiment on HCC 2998, > 100 µM (inactive); in the experiment with K562 it was > 100 µM (inactive); in the experiment with HCT-15 it was above 100 µM; in the experiment with TK-10 it was > 100 µM (inactive). For the same compound, the GI50 with UACC-257, with NCI-H23 and in the experiment on NCI-H522 was > 100 µM (inactive) in each case.
`CC(C)=Cc1cc(C(=O)Nc2ccc(Cl)c(Cl)c2)nc(N)n1`: the GI50 in the experiment with NCI-H460, in the experiment on UO-31, in the experiment with EKVX, in the experiment on HCT-116, with U-251 and with IGROV-1 was > 100 µM (inactive) throughout. In addition, the GI50 with SNB-75 is > 100 µM (inactive); with HCC 2998, > 100 µM (inactive); with K562, > 100 µM (inactive); in the experiment on HCT-15, above 100 µM; in the experiment on TK-10, > 100 µM (inactive); with UACC-257 it was > 100 µM (inactive). The GI50 with NCI-H23 was > 100 µM (inactive).
For `CN(C)CC(/C(Cc1ccccc1)=N\NC(=O)c1ccncc1)c1ccccc1` (stereo unspecified), the GI50 in the experiment with EKVX was 23.6 µM (inactive); with SK-OV-3, 38 µM (inactive); in the experiment with IGROV-1, 47.6 µM (inactive); with SNB-75, 36.1 µM (inactive); in the experiment on HCC 2998, 39.1 µM (inactive); with K562 it was 31.2 µM (inactive). Also, the GI50 was 34.2 µM (inactive) with TK-10, 32.3 µM (inactive) in the experiment on UACC-257, 46.8 µM (inactive) with NCI-H23 and 27.4 µM (inactive) in the experiment with NCI-H522.
For `O=C1C=Cc2noc3cccc1c23`, the GI50 was 4.62 µM (inactive) in the experiment on UO-31; 3.9 µM (inactive) in the experiment with EKVX; 2.11 µM (inactive) in the experiment with HCT-116; 18.1 µM (inactive) in the experiment with SK-OV-3; 13.4 µM (inactive) with U-251; 12.9 µM (inactive) in the experiment on IGROV-1. In addition, the GI50 in the experiment with SNB-75 was 11.6 µM (inactive); in the experiment with HCC 2998, 14.7 µM (inactive); in the experiment with K562, 2.5 µM (inactive); with HCT-15, 3.08 µM; with TK-10, 18.4 µM (inactive); with UACC-257, 12.6 µM (inactive). In addition, the GI50 was 8.97 µM (inactive) in the experiment on NCI-H23 and 1.29 µM (inactive) in the experiment with NCI-H522.
On to `CC(C)COC(=O)c1ccc(/N=C\c2ccc(/C=N/c3ccc(C(=O)OCC(C)C)cc3)cc2)cc1`, for which the GI50 is > 100 µM (inactive) with NCI-H460; > 100 µM (inactive) in the experiment on SR; 23.9 µM (inactive) in the experiment with UO-31; > 100 µM (inactive) in the experiment on SK-OV-3; > 100 µM (inactive) in the experiment with U-251; > 100 µM (inactive) in the experiment with IGROV-1. In addition, the GI50 is > 100 µM (inactive) with SNB-75; > 100 µM (inactive) with HCC 2998; > 100 µM (inactive) with K562; above 100 µM in the experiment with HCT-15; > 100 µM (inactive) in the experiment with TK-10; > 100 µM (inactive) with UACC-257. Also, the values for the GI50 with NCI-H23 and in the experiment with NCI-H522 were 96.6 µM (inactive) and > 100 µM (inactive), respectively.
On to `COc1cc(/C=C(\NC(=O)c2ccccc2)c2nc3cncnc3[nH]2)cc(OC)c1OC`, for which the GI50 is > 100 µM (inactive) with SR; 57.7 µM (inactive) in the experiment on UO-31; > 100 µM (inactive) with EKVX; > 100 µM (inactive) in the experiment on SK-OV-3; > 100 µM (inactive) in the experiment with U-251; > 100 µM (inactive) in the experiment on IGROV-1. For the same compound, the GI50 was > 100 µM (inactive) in the experiment with HCC 2998; > 100 µM (inactive) with K562; above 100 µM with HCT-15; > 100 µM (inactive) in the experiment on TK-10; > 100 µM (inactive) with NCI-H23; > 100 µM (inactive) in the experiment with NCI-H522.
On to `Cc1ccc2nc(NC(=O)C(=O)C(C#N)c3ccc(Cl)cc3)sc2c1` (stereo unspecified), for which the GI50 with NCI-H460, in the experiment with UO-31, in the experiment on EKVX, in the experiment with HCT-116, in the experiment with SK-OV-3 and with U-251 was > 50 µM (inactive) each time. The GI50 in the experiment on IGROV-1 was > 50 µM (inactive); in the experiment on SNB-75 it was > 50 µM (inactive); in the experiment on HCC 2998, > 50 µM (inactive); with HCT-15 it was above 50 µM; in the experiment on TK-10, > 50 µM (inactive); with UACC-257, > 50 µM (inactive). Further, the GI50 in the experiment on NCI-H23 was > 50 µM (inactive).
For `NCCNC(=O)c1cccc2cc3ccccc3nc12`, the GI50 with SR was 0.439 µM (active); with UO-31, 5.26 µM (inactive); with EKVX, 3.7 µM (inactive); in the experiment on HCT-116, 1.11 µM (active); in the experiment on SK-OV-3, 4.82 µM (inactive); in the experiment on U-251, 2.11 µM (inactive). Besides, the GI50 is 3.48 µM (inactive) with IGROV-1; 5.26 µM (inactive) in the experiment on SNB-75; 2.65 µM (inactive) with HCC 2998; 2.15 µM (inactive) with K562; 1.91 µM in the experiment with HCT-15; 2.3 µM (inactive) with TK-10. Further, the GI50 in the experiment on UACC-257 was 2.82 µM (inactive); in the experiment with NCI-H23 it was 2.62 µM (inactive); with NCI-H522, 3.57 µM (inactive).
Take `O=C(CC1=Nc2nnc(-c3nnc4n3C(=O)C(CC(=O)C3CC3)=N4)n2C1=O)C1CC1`: the GI50 with NCI-H460, in the experiment with UO-31, in the experiment with HCT-116, in the experiment on SK-OV-3, in the experiment with U-251 and in the experiment on IGROV-1 was > 100 µM (inactive) in each case. Also, the GI50 in the experiment on SNB-75 is > 100 µM (inactive); in the experiment with HCC 2998, > 100 µM (inactive); with K562, > 100 µM (inactive); with HCT-15, above 100 µM; with TK-10 it was > 100 µM (inactive); in the experiment on UACC-257, > 100 µM (inactive). Also, the GI50 with NCI-H23 and with NCI-H522 was > 100 µM (inactive) each time.
With `C/C(=N\NS(=O)(=O)c1ccc(C)cc1)c1ccc[n+]([O-])n1`, the GI50 in the experiment with NCI-H460 is > 100 µM (inactive); in the experiment with SR, 36.7 µM (inactive); with UO-31, > 100 µM (inactive); with EKVX, > 100 µM (inactive); with HCT-116 it was > 100 µM (inactive); with SK-OV-3, > 100 µM (inactive). Further, the GI50 was > 100 µM (inactive) in the experiment on U-251; > 100 µM (inactive) in the experiment with IGROV-1; 37.9 µM (inactive) with SNB-75; > 100 µM (inactive) in the experiment with HCC 2998; 26.3 µM (inactive) in the experiment with K562; above 100 µM with HCT-15. The values for the GI50 in the experiment with UACC-257, in the experiment on NCI-H23 and with NCI-H522 were > 100 µM (inactive), > 100 µM (inactive) and 36.9 µM (inactive), respectively.
With `Cc1c(C(=O)/C=C/c2cccc3ccccc23)[n+]([O-])c2ccccc2[n+]1[O-]`, the GI50 was 15.3 µM (inactive) in the experiment on NCI-H460; 12.7 µM (inactive) in the experiment with SR; 17.3 µM (inactive) in the experiment on UO-31; 14.1 µM (inactive) in the experiment with EKVX; 6.12 µM (inactive) with HCT-116; 17.3 µM (inactive) in the experiment with SK-OV-3. The GI50 was 14.8 µM (inactive) with U-251; 12.9 µM (inactive) in the experiment on IGROV-1; 13 µM (inactive) in the experiment with SNB-75; 16.8 µM (inactive) in the experiment on HCC 2998; 4.72 µM (inactive) in the experiment with K562; 12.7 µM in the experiment on HCT-15. For the same compound, the GI50 in the experiment on TK-10 was 20.3 µM (inactive); in the experiment on UACC-257, 13.5 µM (inactive); with NCI-H23 it was 12.8 µM (inactive); with NCI-H522, 5.9 µM (inactive).
On to `O=C1C2c3[nH]c4ccccc4c3C3CCCC3C2C(=O)N1c1ccccc1` (stereo unspecified), for which the GI50 is 91.8 µM (inactive) in the experiment with NCI-H460; > 100 µM (inactive) with SR; > 100 µM (inactive) with EKVX; > 100 µM (inactive) in the experiment with SK-OV-3; > 100 µM (inactive) in the experiment on U-251; > 100 µM (inactive) in the experiment with IGROV-1. Further, the GI50 was 40.6 µM (inactive) with SNB-75; > 100 µM (inactive) with HCC 2998; > 100 µM (inactive) in the experiment on K562; 78 µM with HCT-15; > 100 µM (inactive) in the experiment with TK-10; > 100 µM (inactive) with NCI-H23.
Take `COc1ccc(OC)c(N2CC(N)C2=O)c1` (stereo unspecified): the GI50 in the experiment with NCI-H460, with UO-31, in the experiment on EKVX, in the experiment with HCT-116, in the experiment on SK-OV-3 and in the experiment with U-251 was > 100 µM (inactive) each time. Further, the GI50 with IGROV-1 is > 100 µM (inactive); with SNB-75, 86.7 µM (inactive); in the experiment with HCC 2998, > 100 µM (inactive); in the experiment with K562 it was > 100 µM (inactive); in the experiment with HCT-15, above 100 µM; in the experiment with TK-10 it was > 100 µM (inactive). Besides, the GI50 with UACC-257, in the experiment on NCI-H23 and in the experiment with NCI-H522 was > 100 µM (inactive) in each case.
As for `C[C@@]1(Cc2ccccc2)C(=O)N2[C@@H](CO)C(c3ccccc3)O[C@]2(C)c2ccccc21` (stereo partly specified), the GI50 with SR, with UO-31, in the experiment on EKVX, in the experiment on HCT-116, with SK-OV-3 and with U-251 was > 100 µM (inactive) in each case. The GI50 was > 100 µM (inactive) in the experiment with IGROV-1; 32 µM (inactive) in the experiment with SNB-75; > 100 µM (inactive) in the experiment on K562; above 100 µM in the experiment on HCT-15; > 100 µM (inactive) in the experiment with TK-10; > 100 µM (inactive) in the experiment with NCI-H23. In addition, in the experiment on NCI-H522, the GI50 is 81.1 µM (inactive).
